Experimental data published in article PMC5218480 (PLoS ONE, 2017).

Tested on: MV-4-11 cells
Test: Gene expression microarray analysis (Affymetrix PrimeView) and GSEA
Format: cell-based, human
Parameters: RFU PODN (11730768_x_at) / Fold change /veh PODN (11730768_x_at) / RFU LINC00158 (11744669_a_at) / Fold change /veh LINC00158 (11744669_a_at) / RFU DUSP10 (11751237_a_at) / Fold change /veh DUSP10 (11751237_a_at) / RFU ID3 (11757404_x_at) / Fold change /veh ID3 (11757404_x_at) / RFU PLEKHG5 (11737974_s_at) / Fold change /veh PLEKHG5 (11737974_s_at) / RFU LRRC4B (11730491_at) / Fold change /veh LRRC4B (11730491_at) / RFU GIMAP4 (11747438_a_at) / Fold change /veh GIMAP4 (11747438_a_at) / RFU KRT8 (11758183_x_at) / Fold change /veh KRT8 (11758183_x_at) / RFU CNN1 (11734310_a_at) / Fold change /veh CNN1 (11734310_a_at) / RFU VPS37D (11726825_at) / Fold change /veh VPS37D (11726825_at) / RFU C10orf10 (11716522_x_at) / Fold change /veh C10orf10 (11716522_x_at) / RFU KIR2DL2 /// KIR2DL4 /// KIR2DL5A /// KIR2DL5B /// KIR2DS1 /// KIR2DS2 /// KIR2DS3 /// KIR2DS4 /// KIR3DL3 /// KIR3DL3 /// KIR3DS1 (11738374_at) / Fold change /veh KIR2DL2 /// KIR2DL4 /// KIR2DL5A /// KIR2DL5B /// KIR2DS1 /// KIR2DS2 /// KIR2DS3 /// KIR2DS4 /// KIR3DL3 /// KIR3DL3 /// KIR3DS1 (11738374_at) / RFU C1QL1 (11718748_at) / Fold change /veh C1QL1 (11718748_at) / RFU TMPRSS4 (11747572_a_at) / Fold change /veh TMPRSS4 (11747572_a_at) / RFU HAMP (11756126_x_at) / Fold change /veh HAMP (11756126_x_at) / RFU RNFT2 (11725882_a_at) / Fold change /veh RNFT2 (11725882_a_at) / RFU NR4A2 (11747474_a_at) / Fold change /veh NR4A2 (11747474_a_at) / RFU ABCC12 (11746883_a_at) / Fold change /veh ABCC12 (11746883_a_at) / RFU TMEM136 (11760407_x_at) / Fold change /veh TMEM136 (11760407_x_at) / RFU CLDN22 /// WWC2 (11732394_at) / Fold change /veh CLDN22 /// WWC2 (11732394_at) / RFU HLA-DPB1 (11760878_x_at) / Fold change /veh HLA-DPB1 (11760878_x_at) / RFU SPINT1 (11716480_a_at) / Fold change /veh SPINT1 (11716480_a_at) / RFU GAP43 (11754022_s_at) / Fold change /veh GAP43 (11754022_s_at) / RFU A4GNT (11735810_at) / Fold change /veh A4GNT (11735810_at) / RFU PRB3 (11715151_x_at) / Fold change /veh PRB3 (11715151_x_at) / RFU TUBB4B (11761932_at) / Fold change /veh TUBB4B (11761932_at) / RFU CAPN14 (11732068_a_at) / Fold change /veh CAPN14 (11732068_a_at) / RFU TMCC2 (11721928_a_at) / Fold change /veh TMCC2 (11721928_a_at) / RFU IRGQ (11745062_a_at) / Fold change /veh IRGQ (11745062_a_at) / RFU FAM174B (11720279_a_at) / Fold change /veh FAM174B (11720279_a_at) / RFU TMPRSS4 (11748680_a_at) / Fold change /veh TMPRSS4 (11748680_a_at) / RFU FAM212B (11763350_a_at) / Fold change /veh FAM212B (11763350_a_at) / RFU PLEKHG5 (11743358_a_at) / Fold change /veh PLEKHG5 (11743358_a_at) / RFU ZSCAN30 (11745921_a_at) / Fold change /veh ZSCAN30 (11745921_a_at) / RFU CMKLR1 (11741424_a_at) / Fold change /veh CMKLR1 (11741424_a_at) / RFU LOC101060620 /// MAPK8IP1 (11723275_at) / Fold change /veh LOC101060620 /// MAPK8IP1 (11723275_at) / RFU SPTSSB (11747773_x_at) / Fold change /veh SPTSSB (11747773_x_at) / RFU PRSS12 (11739890_at) / Fold change /veh PRSS12 (11739890_at) / RFU BIN1 (11741810_x_at) / Fold change /veh BIN1 (11741810_x_at) / RFU WNT11 (11732464_a_at) / Fold change /veh WNT11 (11732464_a_at) / RFU C10orf10 (11716521_a_at) / Fold change /veh C10orf10 (11716521_a_at) / RFU C5orf56 (11738089_at) / Fold change /veh C5orf56 (11738089_at) / RFU CYB561 (11721691_x_at) / Fold change /veh CYB561 (11721691_x_at) / RFU ANKRD19P (11752326_a_at) / Fold change /veh ANKRD19P (11752326_a_at) / RFU OR2T12 /// OR2T33 /// OR2T8 (11738714_s_at) / Fold change /veh OR2T12 /// OR2T33 /// OR2T8 (11738714_s_at) / RFU VCAN (11748164_a_at) / Fold change /veh VCAN (11748164_a_at) / RFU JSRP1 (11732532_at) / Fold change /veh JSRP1 (11732532_at) / RFU KRTAP10-11 (11738290_x_at) / Fold change /veh KRTAP10-11 (11738290_x_at) / RFU MYO3A (11730013_a_at) / Fold change /veh MYO3A (11730013_a_at) / RFU EBF3 (11725865_a_at) / Fold change /veh EBF3 (11725865_a_at) / RFU CAMK2N1 (11719241_x_at) / Fold change /veh CAMK2N1 (11719241_x_at) / RFU C5orf56 (11738088_a_at) / Fold change /veh C5orf56 (11738088_a_at) / RFU OLFML3 (11715873_a_at) / Fold change /veh OLFML3 (11715873_a_at) / RFU LOC100653217 /// NTM (11731650_a_at) / Fold change /veh LOC100653217 /// NTM (11731650_a_at) / RFU MAPK11 (11762145_a_at) / Fold change /veh MAPK11 (11762145_a_at) / RFU FIZ1 (11724087_x_at) / Fold change /veh FIZ1 (11724087_x_at) / RFU OASL (11726364_x_at) / Fold change /veh OASL (11726364_x_at) / RFU SOX15 (11748057_x_at) / Fold change /veh SOX15 (11748057_x_at) / RFU CD79A (11719716_a_at) / Fold change /veh CD79A (11719716_a_at) / RFU HIST1H1D (11736915_at) / Fold change /veh HIST1H1D (11736915_at) / RFU CASKIN2 (11723855_a_at) / Fold change /veh CASKIN2 (11723855_a_at) / RFU LOC730098 (11760151_x_at) / Fold change /veh LOC730098 (11760151_x_at) / RFU OR4N2 (11742367_at) / Fold change /veh OR4N2 (11742367_at) / RFU PRRT2 (11749266_a_at) / Fold change /veh PRRT2 (11749266_a_at) / RFU SNX32 (11753110_a_at) / Fold change /veh SNX32 (11753110_a_at) / RFU CDHR5 (11726645_a_at) / Fold change /veh CDHR5 (11726645_a_at) / RFU RCAN1 (11760418_a_at) / Fold change /veh RCAN1 (11760418_a_at) / RFU FAM167A (11723789_a_at) / Fold change /veh FAM167A (11723789_a_at) / RFU FAM26E (11764081_at) / Fold change /veh FAM26E (11764081_at) / RFU ISYNA1 (11749810_s_at) / Fold change /veh ISYNA1 (11749810_s_at) / RFU ACY1 (11761880_at) / Fold change /veh ACY1 (11761880_at) / RFU 11764098_at / Fold change /veh 11764098_at / RFU SAMD14 (11745864_x_at) / Fold change /veh SAMD14 (11745864_x_at) / RFU NPB (11741838_a_at) / Fold change /veh NPB (11741838_a_at) / RFU TMPRSS6 (11731388_a_at) / Fold change /veh TMPRSS6 (11731388_a_at) / RFU KRTAP10-2 (11738614_at) / Fold change /veh KRTAP10-2 (11738614_at) / RFU ARHGAP8 /// PRR5-ARHGAP8 (11727945_x_at) / Fold change /veh ARHGAP8 /// PRR5-ARHGAP8 (11727945_x_at) / RFU KRTAP5-7 /// NADSYN1 (11734609_at) / Fold change /veh KRTAP5-7 /// NADSYN1 (11734609_at) / RFU RASL12 (11751679_a_at) / Fold change /veh RASL12 (11751679_a_at) / RFU CDKN2B (11736163_a_at) / Fold change /veh CDKN2B (11736163_a_at) / RFU PRF1 (11729649_at) / Fold change /veh PRF1 (11729649_at) / RFU, ZNF638 /// ZNF638-IT1 / Fold change vs veh, ZNF638 /// ZNF638-IT1 / RFU, PANK3 / Fold change vs veh, PANK3 / RFU, SH3YL1 / Fold change vs veh, SH3YL1 / RFU, ZEB2 / Fold change vs veh, ZEB2 / RFU, NRIP1 / Fold change vs veh, NRIP1 / RFU, PTTG1IP / Fold change vs veh, PTTG1IP / RFU, CAPN2 / Fold change vs veh, CAPN2 / RFU, MED14 / Fold change vs veh, MED14 / RFU, SNORA58 / Fold change vs veh, SNORA58 / RFU, C1orf63 / Fold change vs veh, C1orf63 / RFU, LRRFIP1 / Fold change vs veh, LRRFIP1 / RFU, NDUFAF7 / Fold change vs veh, NDUFAF7 / RFU, SLC12A2 / Fold change vs veh, SLC12A2 / RFU, IBTK / Fold change vs veh, IBTK / RFU, ESF1 / Fold change vs veh, ESF1 / Fold change vs veh, TMEM50B / RFU, TAOK1 / Fold change vs veh, TAOK1 / RFU, ACBD3 / Fold change vs veh, ACBD3 / RFU, TMA16 / Fold change vs veh, TMA16 / RFU, RWDD3 / Fold change vs veh, RWDD3 / RFU, BCAT1 / Fold change vs veh, BCAT1 / RFU, EDEM3 / Fold change vs veh, EDEM3 / RFU, TMEM33 / Fold change vs veh, TMEM33 / RFU, WDR75 / Fold change vs veh, WDR75 / RFU, AHCTF1 / Fold change vs veh, AHCTF1 / RFU, TFRC / Fold change vs veh, TFRC / RFU, ZDHHC17 / Fold change vs veh, ZDHHC17 / RFU, NOM1 / Fold change vs veh, NOM1 / RFU, ARL8B / Fold change vs veh, ARL8B / RFU, ZBTB11 / Fold change vs veh, ZBTB11 / RFU, TAMM41 / Fold change vs veh, TAMM41 / RFU, KIAA1704 /// LOC100996395 / Fold change vs veh, KIAA1704 /// LOC100996395 / RFU, ING1 / Fold change vs veh, ING1 / RFU, TRMT61B / Fold change vs veh, TRMT61B / RFU, FUBP3 / Fold change vs veh, FUBP3 / RFU, TP53 / Fold change vs veh, TP53 / RFU, TNKS2 / Fold change vs veh, TNKS2 / RFU, ZFP14 / Fold change vs veh, ZFP14 / RFU, ACTR2 / Fold change vs veh, ACTR2 / RFU, PPP3R1 / Fold change vs veh, PPP3R1 / RFU, PIK3R1 / Fold change vs veh, PIK3R1 / RFU, HNRNPA1 / Fold change vs veh, HNRNPA1 / RFU, RNF170 / Fold change vs veh, RNF170 / RFU, ZNF28 / Fold change vs veh, ZNF28 / RFU, RNGTT / Fold change vs veh, RNGTT / RFU, OGT / Fold change vs veh, OGT / RFU, BRD1 / Fold change vs veh, BRD1 / RFU, MARS / Fold change vs veh, MARS / RFU, ZNF655 / Fold change vs veh, ZNF655 / RFU, FAHD1 / Fold change vs veh, FAHD1 / RFU, BDP1 / Fold change vs veh, BDP1 / RFU, LRRCC1 / Fold change vs veh, LRRCC1 / RFU, ARID1A / Fold change vs veh, ARID1A / RFU, ZNF146 / Fold change vs veh, ZNF146 / RFU, ZNF330 / Fold change vs veh, ZNF330 / RFU, GPN3 / Fold change vs veh, GPN3 / RFU, C9orf123 / Fold change vs veh, C9orf123 / RFU, N4BP2L2 / Fold change vs veh, N4BP2L2 / RFU, ARFIP1 / Fold change vs veh, ARFIP1 / RFU, FAM179B / Fold change vs veh, FAM179B / RFU, BCL10 / Fold change vs veh, BCL10 / RFU, UHRF1BP1L / Fold change vs veh, UHRF1BP1L / RFU, BET1 / Fold change vs veh, BET1 / RFU, CNOT2 / Fold change vs veh, CNOT2 / RFU, ZNF268 / Fold change vs veh, ZNF268 / Fold change vs veh, ZNF507 / RFU, DGCR2 / Fold change vs veh, DGCR2 / RFU, WDSUB1 / Fold change vs veh, WDSUB1 / Fold change vs veh, HSP90B1 /// MIR3652 / RFU, ADSS / Fold change vs veh, ADSS / RFU, GK / Fold change vs veh, GK / RFU, ZNF148 / Fold change vs veh, ZNF148 / RFU, TAF9 / Fold change vs veh, TAF9 / RFU, SLC1A5 / Fold change vs veh, SLC1A5 / RFU, SLMO2 / Fold change vs veh, SLMO2 / RFU, ABCC4 / Fold change vs veh, ABCC4 / RFU, LOC101060439 /// RAP1B / Fold change vs veh, LOC101060439 /// RAP1B / RFU, RFX7 / Fold change vs veh, RFX7 / RFU, GTPBP10 / Fold change vs veh, GTPBP10 / RFU, CNEP1R1 / Fold change vs veh, CNEP1R1 / RFU, BIVM-ERCC5 /// ERCC5 / Fold change vs veh, BIVM-ERCC5 /// ERCC5 / RFU, ILF3 / Fold change vs veh, ILF3 / RFU 11762660_at / Fold change /veh 11762660_at / RFU VCAN (11757783_s_at) / Fold change /veh VCAN (11757783_s_at) / RFU DDX43 (11728927_at) / Fold change /veh DDX43 (11728927_at) / RFU KRT8 (11758188_x_at) / Fold change /veh KRT8 (11758188_x_at) / RFU NKD1 (11759106_at) / Fold change /veh NKD1 (11759106_at) / RFU SRD5A1 (11742802_a_at) / Fold change /veh SRD5A1 (11742802_a_at) / RFU TPSAB1 /// TPSB2 (11721975_s_at) / Fold change /veh TPSAB1 /// TPSB2 (11721975_s_at) / RFU GSTM3 (11746129_a_at) / Fold change /veh GSTM3 (11746129_a_at) / RFU IL23R (11737362_x_at) / Fold change /veh IL23R (11737362_x_at) / RFU TMEM51 (11727254_a_at) / Fold change /veh TMEM51 (11727254_a_at) / RFU PIWIL2 (11732686_x_at) / Fold change /veh PIWIL2 (11732686_x_at) / RFU ORM1 (11744905_x_at) / Fold change /veh ORM1 (11744905_x_at) / RFU CCDC152 (11743942_at) / Fold change /veh CCDC152 (11743942_at) / RFU ECM1 (11717891_a_at) / Fold change /veh ECM1 (11717891_a_at) / RFU IL23R (11748794_a_at) / Fold change /veh IL23R (11748794_a_at) / RFU TNFAIP8L3 (11732012_x_at) / Fold change /veh TNFAIP8L3 (11732012_x_at) / RFU MBOAT4 (11741988_at) / Fold change /veh MBOAT4 (11741988_at) / RFU 11764193_at / Fold change /veh 11764193_at / RFU TMEM53 (11763286_at) / Fold change /veh TMEM53 (11763286_at) / RFU MAGEB2 (11727129_at) / Fold change /veh MAGEB2 (11727129_at) / RFU TMEM200A (11744735_a_at) / Fold change /veh TMEM200A (11744735_a_at) / RFU CCDC152 (11751479_a_at) / Fold change /veh CCDC152 (11751479_a_at) / RFU FAM211A (11726209_a_at) / Fold change /veh FAM211A (11726209_a_at) / RFU RGS16 (11746705_a_at) / Fold change /veh RGS16 (11746705_a_at) / RFU VCAN (11755009_s_at) / Fold change /veh VCAN (11755009_s_at) / RFU RHOB (11743442_s_at) / Fold change /veh RHOB (11743442_s_at) / RFU RGS16 (11720943_a_at) / Fold change /veh RGS16 (11720943_a_at) / RFU RGS16 (11720944_at) / Fold change /veh RGS16 (11720944_at) / RFU, VPS4B / Fold change vs veh, VPS4B / RFU, CREB1 / Fold change vs veh, CREB1 / RFU, DNAJC13 / Fold change vs veh, DNAJC13 / RFU, GNAQ / Fold change vs veh, GNAQ / RFU, CDK5R1 / Fold change vs veh, CDK5R1 / RFU, ZRANB3 / Fold change vs veh, ZRANB3 / RFU, CUL4A / Fold change vs veh, CUL4A / RFU, CCNY / Fold change vs veh, CCNY / RFU, UFL1 / Fold change vs veh, UFL1 / RFU, COG3 / Fold change vs veh, COG3 / RFU, DIAPH2 / Fold change vs veh, DIAPH2 / RFU, SKA2 / Fold change vs veh, SKA2 / RFU, AFF3 / Fold change vs veh, AFF3 / RFU, LMF1 / Fold change vs veh, LMF1 / RFU, IPO11 / Fold change vs veh, IPO11 / RFU, DFFB / Fold change vs veh, DFFB / RFU, FOXP1 / Fold change vs veh, FOXP1 / RFU, CARD8 / Fold change vs veh, CARD8 / RFU, STRN3 / Fold change vs veh, STRN3 / RFU, ADK / Fold change vs veh, ADK / RFU, RASSF2 / Fold change vs veh, RASSF2 / RFU, WIPF1 / Fold change vs veh, WIPF1 / RFU, LARP1B / Fold change vs veh, LARP1B / RFU, RASA1 / Fold change vs veh, RASA1 / RFU, RB1 / Fold change vs veh, RB1 / RFU, PPFIA1 / Fold change vs veh, PPFIA1 / RFU, MAT2A / Fold change vs veh, MAT2A / RFU, CCT5 / Fold change vs veh, CCT5 / RFU, WDR92 / Fold change vs veh, WDR92 / RFU, CUX1 / Fold change vs veh, CUX1 / RFU, TTC7A / Fold change vs veh, TTC7A / RFU, TMEM135 / Fold change vs veh, TMEM135 / RFU, DEPTOR / Fold change vs veh, DEPTOR / RFU, CPM / Fold change vs veh, CPM / RFU, DNAJB6 / Fold change vs veh, DNAJB6 / RFU, CACNA2D3 / Fold change vs veh, CACNA2D3 / RFU, DTX4 / Fold change vs veh, DTX4 / RFU, TFCP2 / Fold change vs veh, TFCP2 / RFU, GMCL1 /// GMCL1P1 / Fold change vs veh, GMCL1 /// GMCL1P1 / RFU, AEBP2 / Fold change vs veh, AEBP2 / RFU, SNHG1 /// SNORD22 /// SNORD25 /// SNORD26 /// SNORD27 /// SNORD28 /// SNORD29 /// SNORD31 / Fold change vs veh, SNHG1 /// SNORD22 /// SNORD25 /// SNORD26 /// SNORD27 /// SNORD28 /// SNORD29 /// SNORD31 / Fold change (Aza/veh), C12orf56 (ProbeSet 11735607_a_at) / Fold change (ACY-1035/veh), C12orf56 (ProbeSet 11735607_a_at) / Fold change (Aza/veh), FGFR1OP (ProbeSet 11751329_s_at) / Fold change (ACY-1035/veh), FGFR1OP (ProbeSet 11751329_s_at) / Fold change (Aza/veh), VPS36 (ProbeSet 11739960_a_at) / Fold change (ACY-1035/veh), VPS36 (ProbeSet 11739960_a_at) / RFU SYPL1 (11715823_x_at) / Fold change /veh SYPL1 (11715823_x_at) / RFU IGFBP7 (11715501_s_at) / Fold change /veh IGFBP7 (11715501_s_at) / RFU REEP3 (11722064_at) / Fold change /veh REEP3 (11722064_at) / RFU IGLL1 (11728026_x_at) / Fold change /veh IGLL1 (11728026_x_at): dose or concentration left out as unconfirmed
Conditions: MV-4-11 cells, 48 hours

## Nc1ccc(-c2cccs2)cc1NC(=O)c1ccc2c(c1)cc(C1CC1)n2CCN1CCOCC1 [ACY-1035]
  Fold change /veh RGS16 (11720943_a_at): 0.99
